Measured values as given in patent EP4635500A1, “THERAPEUTIC AGENT FOR BACTERIAL INFECTION” (Sumitomo Pharma Co., Ltd., priority 2022, dated 2024).
≈ marks a conversion by molar mass, not a printed value. Like-named read-outs stand apart in the source and are kept apart here.

Key:
[1] = test system: Klebsiella pneumoniae; experiment: MIC and MBC, broth microdilution (Example 4, Table 3); format: cell-based; conditions: Klebsiella pneumoniae; for MIC: read-out: MIC
[2] = test system: carbapenemase-producing Enterobacteriaceae (CPE); experiment: Bactericidal activity by bactericidal curve method (Example 10); format: cell-based, E. coli, Klebsiella pneumoniae; conditions: MEPM ≥1 x MIC; within 1 to 2 hours after culture; all four strains
[3] = test system: Enterobacter aerogenes; experiment: MIC and MBC, broth microdilution (Example 4, Table 3); format: cell-based; conditions: Klebsiella aerogenes
[4] = test system: Enterobacter cloacae complex; experiment: as above; format: cell-based; conditions: Enterobacter cloacae complex CDC-164 (NMC-A)
[5] = test system: carbapenemase-producing Enterobacteriaceae (CPE); experiment: MIC in human urine and CAMHB at pH 5.0 to 8.0 (Example 13, Tables 29, 30)
[6] = ATCCBAA2344, Klebsiella pneumoniae ATCC BAA-2344 (KPC-2)
[7] = ATCCBAA2470, Klebsiella pneumoniae ATCC BAA-2470 (NDM-1)
[8] = ATCCBAA2524, Klebsiella pneumoniae ATCC BAA-2524 (OXA-48)
[9] = Klebsiella pneumoniae CDC-112 (KPC-3)
[10] = Klebsiella pneumoniae CDC-505 (NDM-1)
[11] = Klebsiella pneumoniae KUB3607 (IMP-1)
[12] = NCTC13440, Klebsiella pneumoniae NCTC13440 (VIM-1)

C[C@@H](O)[C@H]1C(=O)N2C(C(=O)O)=C(S[C@@H]3CN[C@H](C(=O)N(C)C)C3)[C@H](C)[C@H]12 [MEPM, meropenem]
MBC [1, 6]: 32 mg/L (≈ 83.4 µM)
MIC [1, 6]: 16 mg/L (≈ 41.7 µM)
MBC [1, 7]: 32 mg/L (≈ 83.4 µM)
MIC [1, 7]: 32 mg/L (≈ 83.4 µM)
MBC [1, 8]: 4 mg/L (≈ 10.4 µM)
MIC [1, 8]: 1 mg/L (≈ 2.61 µM)
MBC [1, 9]: 32 mg/L (≈ 83.4 µM)
MIC [1, 9]: 32 mg/L (≈ 83.4 µM)
MBC [1, 10]: 64 mg/L (≈ 167 µM)
MIC [1, 10]: 64 mg/L (≈ 167 µM)
MBC [1, 11]: 8 mg/L (≈ 20.9 µM)
MIC [1, 11]: 8 mg/L (≈ 20.9 µM)
MBC [1, 12]: 64 mg/L (≈ 167 µM)
MIC [1, 12]: 16 mg/L (≈ 41.7 µM)
reduction in the number of bacteria compared to preculture level [2]: 3 log10
MBC [3]: 8 mg/L (≈ 20.9 µM)
MIC [3]: 4 mg/L (≈ 10.4 µM)
MBC [4]: 32 mg/L (≈ 83.4 µM)
MIC [4]: 32 mg/L (≈ 83.4 µM)
MIC ([5]; Escherichia coli, ATCC25922, pH 5, read-out: MICs of MEPM, E. coli ATCC 25922 (QC strain), CAMHB pH5.0): 0.12 mg/L (≈ 0.313 µM)
MIC ([5]; Escherichia coli, ATCC25922, pH 5, read-out: MICs of MEPM, E. coli ATCC 25922 (QC strain), Human urine pH5.0): 0.12 mg/L (≈ 0.313 µM)
MIC ([5]; Escherichia coli, ATCC25922, pH 6, read-out: MICs of MEPM, E. coli ATCC 25922 (QC strain), CAMHB pH6.0): 0.06 mg/L (≈ 0.156 µM)
MIC ([5]; Escherichia coli, ATCC25922, pH 6, read-out: MICs of MEPM, E. coli ATCC 25922 (QC strain), Human urine pH6.0): 0.03 mg/L (≈ 0.0782 µM)
MIC ([5]; Escherichia coli, ATCC25922, pH 7, read-out: MICs of MEPM, E. coli ATCC 25922 (QC strain), Human urine pH7.0): 0.015 mg/L (≈ 0.0391 µM)
MIC ([5]; Escherichia coli, ATCC25922, pH 7.2, read-out: MICs of MEPM, E. coli ATCC 25922 (QC strain), Standard condition (CAMHB pH7.2)): 0.03 mg/L (≈ 0.0782 µM)
MIC ([5]; Escherichia coli, ATCC25922, pH 8, read-out: MICs of MEPM, E. coli ATCC 25922 (QC strain), CAMHB pH8.0): 0.015 mg/L (≈ 0.0391 µM)
MIC ([5]; Escherichia coli, ATCC25922, pH 8, read-out: MICs of MEPM, E. coli ATCC 25922 (QC strain), Human urine pH8.0): 0.015 mg/L (≈ 0.0391 µM)
MIC ([5]; Escherichia coli, ATCCBAA2340, pH 5, read-out: MICs of MEPM, E. coli ATCC BAA-2340 (KPC-3), CAMHB pH5.0): 2 mg/L (≈ 5.22 µM)
MIC ([5]; Escherichia coli, ATCCBAA2340, pH 5, read-out: MICs of MEPM, E. coli ATCC BAA-2340 (KPC-3), Human urine pH5.0): 1 mg/L (≈ 2.61 µM)
MIC ([5]; Escherichia coli, ATCCBAA2340, pH 6, read-out: MICs of MEPM, E. coli ATCC BAA-2340 (KPC-3), CAMHB pH6.0): 8 mg/L (≈ 20.9 µM)
MIC ([5]; Escherichia coli, ATCCBAA2340, pH 6, read-out: MICs of MEPM, E. coli ATCC BAA-2340 (KPC-3), Human urine pH6.0): 1 mg/L (≈ 2.61 µM)
MIC ([5]; Escherichia coli, ATCCBAA2340, pH 7, read-out: MICs of MEPM, E. coli ATCC BAA-2340 (KPC-3), Human urine pH7.0): 2 mg/L (≈ 5.22 µM)
MIC ([5]; Escherichia coli, ATCCBAA2340, pH 7.2, read-out: MICs of MEPM, E. coli ATCC BAA-2340 (KPC-3), Standard condition (CAMHB pH7.2)): 8 mg/L (≈ 20.9 µM)
MIC ([5]; Escherichia coli, ATCCBAA2340, pH 8, read-out: MICs of MEPM, E. coli ATCC BAA-2340 (KPC-3), CAMHB pH8.0): 4 mg/L (≈ 10.4 µM)
MIC ([5]; Escherichia coli, ATCCBAA2340, pH 8, read-out: MICs of MEPM, E. coli ATCC BAA-2340 (KPC-3), Human urine pH8.0): 8 mg/L (≈ 20.9 µM)
MIC ([5]; Escherichia coli, ATCCBAA2469, pH 5, read-out: MICs of MEPM, E. coli ATCC BAA-2469 (NDM-1), CAMHB pH5.0): 0.12 mg/L (≈ 0.313 µM)
MIC ([5]; Escherichia coli, ATCCBAA2469, pH 5, read-out: MICs of MEPM, E. coli ATCC BAA-2469 (NDM-1), Human urine pH5.0): 0.12 mg/L (≈ 0.313 µM)
MIC ([5]; Escherichia coli, ATCCBAA2469, pH 6, read-out: MICs of MEPM, E. coli ATCC BAA-2469 (NDM-1), CAMHB pH6.0): 8 mg/L (≈ 20.9 µM)
MIC ([5]; Escherichia coli, ATCCBAA2469, pH 6, read-out: MICs of MEPM, E. coli ATCC BAA-2469 (NDM-1), Human urine pH6.0): 0.12 mg/L (≈ 0.313 µM)
MIC ([5]; Escherichia coli, ATCCBAA2469, pH 7, read-out: MICs of MEPM, E. coli ATCC BAA-2469 (NDM-1), Human urine pH7.0): 16 mg/L (≈ 41.7 µM)
MIC ([5]; Escherichia coli, ATCCBAA2469, pH 7.2, read-out: MICs of MEPM, E. coli ATCC BAA-2469 (NDM-1), Standard condition (CAMHB pH7.2)): 32 mg/L (≈ 83.4 µM)
MIC ([5]; Escherichia coli, ATCCBAA2469, pH 8, read-out: MICs of MEPM, E. coli ATCC BAA-2469 (NDM-1), CAMHB pH8.0): 64 mg/L (≈ 167 µM)
MIC ([5]; Escherichia coli, ATCCBAA2469, pH 8, read-out: MICs of MEPM, E. coli ATCC BAA-2469 (NDM-1), Human urine pH8.0): 8 mg/L (≈ 20.9 µM)
MIC ([5]; Escherichia coli, NCTC13476, pH 5, read-out: MICs of MEPM, E. coli NCTC 13476 (IMP-1), CAMHB pH5.0): 0.25 mg/L (≈ 0.652 µM)
MIC ([5]; Escherichia coli, NCTC13476, pH 5, read-out: MICs of MEPM, E. coli NCTC 13476 (IMP-1), Human urine pH5.0): 0.25 mg/L (≈ 0.652 µM)
MIC ([5]; Escherichia coli, NCTC13476, pH 6, read-out: MICs of MEPM, E. coli NCTC 13476 (IMP-1), CAMHB pH6.0): 1 mg/L (≈ 2.61 µM)
MIC ([5]; Escherichia coli, NCTC13476, pH 6, read-out: MICs of MEPM, E. coli NCTC 13476 (IMP-1), Human urine pH6.0): 0.12 mg/L (≈ 0.313 µM)
MIC ([5]; Escherichia coli, NCTC13476, pH 7, read-out: MICs of MEPM, E. coli NCTC 13476 (IMP-1), Human urine pH7.0): 1 mg/L (≈ 2.61 µM)
MIC ([5]; Escherichia coli, NCTC13476, pH 7.2, read-out: MICs of MEPM, E. coli NCTC 13476 (IMP-1), Standard condition (CAMHB pH7.2)): 4 mg/L (≈ 10.4 µM)
MIC ([5]; Escherichia coli, NCTC13476, pH 8, read-out: MICs of MEPM, E. coli NCTC 13476 (IMP-1), CAMHB pH8.0): 16 mg/L (≈ 41.7 µM)
MIC ([5]; Escherichia coli, NCTC13476, pH 8, read-out: MICs of MEPM, E. coli NCTC 13476 (IMP-1), Human urine pH8.0): 8 mg/L (≈ 20.9 µM)
MIC ([5]; Klebsiella pneumoniae, ATCCBAA2342, pH 5, read-out: MICs of MEPM, K. pneumoniae ATCC BAA-2342 (KPC-3), CAMHB pH5.0): 16 mg/L (≈ 41.7 µM)
MIC ([5]; Klebsiella pneumoniae, ATCCBAA2342, pH 5, read-out: MICs of MEPM, K. pneumoniae ATCC BAA-2342 (KPC-3), Human urine pH5.0): 4 mg/L (≈ 10.4 µM)
